Key:
[1] = tested on: barnyardgrass; test: Test A preemergence; format: in vivo, Echinochloa crus-galli; settings: Echinochloa crus-galli, pre-emergence, 240 h, read-out: Barnyardgrass plant response rating
In short: (§1)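 Scoring: eye-based comparison with untreated controls, 0 for no effect through 100 for complete control, at about day 10. Treatments: directed soil spray preemergence; foliar spray postemergence on 2–10 cm plants at the one- to two-leaf stage. Medium: loam soil with sand.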

[2] = tested on: barnyardgrass; test: Test A postemergence; format: in vivo, Echinochloa crus-galli; settings: Echinochloa crus-galli, post-emergence, 240 h
In short: as §1

[3] = tested on: corn; test: Test A postemergence; format: in vivo, Zea mays; settings: Zea mays, post-emergence, 240 h
In short: as §1

[4] = tested on: rice; test: Test B flooded paddy test; format: in vivo, Oryza sativa; settings: Oryza sativa; Flood, 250 g ai/ha; 0 to 100 scale where 0 is no effect and 100 is complete control; read-out: Plant response rating, Rice
In short: (§2)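 Plants at 2-leaf stage; pots flooded to 3 cm above soil and compound applied directly into paddy water, depth held throughout. After 13 to 15 days in greenhouse, visual rating versus controls on 0 (no effect) to 100 (complete control) scale.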

[5] = tested on: sedge, umbrella; test: Test B flooded paddy test; format: in vivo, Cyperus difformis; settings: Cyperus difformis, Flood, 250 g ai/ha; 0 to 100 scale where 0 is no effect and 100 is complete control; read-out: Plant response rating, Sedge, Umbrella
In short: as §2

[6] = tested on: galium; test: Test C preemergence; format: in vivo, Galium aparine; settings: Galium, pre-emergence
In short: (§3)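 Seeds were sown in loam–sand blend and sprayed preemergence, while plants at 1- to 4-leaf stage (2–18 cm) in peat-based medium received postemergence sprays; test chemicals were formulated in a non-phytotoxic solvent with surfactant. After 13–15 days in a greenhouse, injury was rated visually against controls, 0 (no effect) to 100 (complete control).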

[7] = tested on: large (Lg) crabgrass; test: Test C preemergence; format: in vivo, Digitaria sanguinalis; settings: Digitaria sanguinalis, pre-emergence
In short: as §3

[8] = tested on: johnsongrass; test: Test C preemergence; format: in vivo, Sorghum halepense; settings: Sorghum halepense, pre-emergence
In short: as §3

[9] = tested on: velvetleaf; test: Test C preemergence; format: in vivo, Abutilon theophrasti; settings: Abutilon theophrasti, pre-emergence
In short: as §3

[10] = tested on: large (Lg) crabgrass; test: Test C postemergence; format: in vivo, Digitaria sanguinalis; settings: Digitaria sanguinalis, post-emergence
In short: as §3

[11] = tested on: lambsquarters; test: Test C postemergence; format: in vivo, Chenopodium album; settings: Chenopodium album, post-emergence
In short: as §3

[12] = tested on: soybean; test: Test C postemergence; format: in vivo, Glycine max; settings: Glycine max, post-emergence
In short: as §3

[13] = tested on: velvetleaf; test: Test C postemergence; format: in vivo, Abutilon theophrasti; settings: Abutilon theophrasti, post-emergence
In short: as §3

[14] = 125 g ai/ha, 0 to 100 scale where 0 is no effect and 100 is complete control

## Clc1cnc(Oc2ccccc2-n2cc(Br)cn2)nc1 [Compound 7, 2-[2-(4-bromo-1H-pyrazol-1-yl)phenoxy]-5-chloropyrimidine]
[1]; [14]
  pest or weed control at 125 g/ha: 80%
[1]; 500 g ai/ha, 0 to 100 scale, 0 no effect, 100 complete control, approx. 10 days
  pest or weed control at 500 g/ha: 100%
[2]; 125 g ai/ha, 0 to 100 scale where 0 is no effect and 100 is complete control, read-out: Plant response rating, Barnyardgrass
  pest or weed control at 125 g/ha: 90%
[2]; 500 g ai/ha, 0 to 100 scale, 0 no effect, 100 complete control, read-out: Plant response rating Barnyardgrass
  pest or weed control at 500 g/ha: 100%
[3]; [14]
  Corn plant response rating (crop injury, 0 = no effect, 100 = complete kill) at 125 g/ha: 30%
[3]; 500 g ai/ha, 0 to 100 scale, 0 no effect, 100 complete control, read-out: Plant response rating Corn
  plant injury at 500 g/ha: 50%
[4]
  plant injury at 250 g/ha: 20%
[5]
  pest or weed control at 250 g/ha: 75%
[6]; 62 g ai/ha, preemergence, scale 0 (no effect) to 100 (complete control), read-out: Galium plant response rating
  pest or weed control at 62 g/ha: 100%
[6]; 125 g ai/ha, preemergence, scale 0 (no effect) to 100 (complete control), read-out: Galium plant response rating
  pest or weed control at 125 g/ha: 100%
[6]; 250 g ai/ha, preemergence, scale 0 (no effect) to 100 (complete control), read-out: Galium plant response rating
  pest or weed control at 250 g/ha: 100%
[6]; Preemergence, 31 g ai/ha, scale 0 to 100, 0 no effect, 100 complete control, read-out: Plant response rating, Galium
  pest or weed control at 31 g/ha: 85%
[7]; 62 g ai/ha, preemergence, scale 0 (no effect) to 100 (complete control), read-out: Crabgrass, Large plant response rating
  pest or weed control at 62 g/ha: 98%
[7]; 125 g ai/ha, preemergence, scale 0 (no effect) to 100 (complete control), read-out: Crabgrass, Large plant response rating
  pest or weed control at 125 g/ha: 100%
[7]; 250 g ai/ha, preemergence, scale 0 (no effect) to 100 (complete control), read-out: Crabgrass, Large plant response rating
  pest or weed control at 250 g/ha: 100%
[7]; Preemergence, 31 g ai/ha, scale 0 to 100, 0 no effect, 100 complete control, read-out: Plant response rating, Crabgrass, Large
  pest or weed control at 31 g/ha: 80%
[8]; 62 g ai/ha, preemergence, scale 0 (no effect) to 100 (complete control), read-out: Johnsongrass plant response rating
  pest or weed control at 62 g/ha: 5%
[8]; 125 g ai/ha, preemergence, scale 0 (no effect) to 100 (complete control), read-out: Johnsongrass plant response rating
  pest or weed control at 125 g/ha: 10%
[8]; 250 g ai/ha, preemergence, scale 0 (no effect) to 100 (complete control), read-out: Johnsongrass plant response rating
  pest or weed control at 250 g/ha: 75%
[8]; Preemergence, 31 g ai/ha, scale 0 to 100, 0 no effect, 100 complete control, read-out: Plant response rating, Johnsongrass
  pest or weed control at 31 g/ha: 0%
[9]; 62 g ai/ha, preemergence, scale 0 (no effect) to 100 (complete control), read-out: Velvetleaf plant response rating
  pest or weed control at 62 g/ha: 100%
[9]; 125 g ai/ha, preemergence, scale 0 (no effect) to 100 (complete control), read-out: Velvetleaf plant response rating
  pest or weed control at 125 g/ha: 100%
[9]; 250 g ai/ha, preemergence, scale 0 (no effect) to 100 (complete control), read-out: Velvetleaf plant response rating
  pest or weed control at 250 g/ha: 100%
[9]; Preemergence, 31 g ai/ha, scale 0 to 100, 0 no effect, 100 complete control, read-out: Plant response rating, Velvetleaf
  pest or weed control at 31 g/ha: 40%
[10]; 125 g ai/ha, postemergence, read-out: Plant response rating (0 to 100), Crabgrass, Large
  pest or weed control at 125 g/ha: 10%
[10]; 250 g ai/ha, postemergence, read-out: Plant response rating (0 to 100), Crabgrass, Large
  pest or weed control at 250 g/ha: 20%
[10]; Postemergence, 31 g ai/ha, scale 0 to 100 (0 no effect, 100 complete control), 13 to 15 days, read-out: Plant response rating, Crabgrass, Large
  pest or weed control at 31 g/ha: 5%
[10]; Postemergence, 62 g ai/ha, scale 0 to 100 (0 no effect, 100 complete control), read-out: Plant response rating, Crabgrass, Large
  pest or weed control at 62 g/ha: 5%
[11]; 125 g ai/ha, postemergence, read-out: Plant response rating (0 to 100), Lambsquarters
  pest or weed control at 125 g/ha: 98%
[11]; 250 g ai/ha, postemergence, read-out: Plant response rating (0 to 100), Lambsquarters
  pest or weed control at 250 g/ha: 98%
[11]; Postemergence, 31 g ai/ha, scale 0 to 100 (0 no effect, 100 complete control), 13 to 15 days, read-out: Plant response rating, Lambsquarters
  pest or weed control at 31 g/ha: 60%
[11]; Postemergence, 62 g ai/ha, scale 0 to 100 (0 no effect, 100 complete control), read-out: Plant response rating, Lambsquarters
  pest or weed control at 62 g/ha: 98%
[12]; 125 g ai/ha, postemergence, read-out: Plant response rating (0 to 100), Soybean
  Soybean plant response rating (crop injury, 0-100 scale) at 125 g/ha: 98%
[12]; 250 g ai/ha, postemergence
  Soybean plant response rating (crop injury, 0-100 scale) at 250 g/ha: 98%
[12]; Postemergence, 31 g ai/ha, scale 0 to 100 (0 no effect, 100 complete control), 13 to 15 days
  Soybean plant response rating (crop injury, 0-100 scale) at 31 g/ha: 85%
[12]; Postemergence, 62 g ai/ha, scale 0 to 100 (0 no effect, 100 complete control)
  Soybean plant response rating (crop injury, 0-100 scale) at 62 g/ha: 98%
[13]; 125 g ai/ha, postemergence, read-out: Plant response rating (0 to 100), Velvetleaf
  pest or weed control at 125 g/ha: 85%
[13]; 250 g ai/ha, postemergence, read-out: Plant response rating (0 to 100), Velvetleaf
  pest or weed control at 250 g/ha: 85%
[13]; Postemergence, 31 g ai/ha, scale 0 to 100 (0 no effect, 100 complete control), 13 to 15 days, read-out: Plant response rating, Velvetleaf
  pest or weed control at 31 g/ha: 40%
[13]; Postemergence, 62 g ai/ha, scale 0 to 100 (0 no effect, 100 complete control), read-out: Plant response rating, Velvetleaf
  pest or weed control at 62 g/ha: 50%

Source: patent publication US9695155B2, “Herbicidal substituted pyrimidinyloxy benzene compounds” (E. I. DU PONT DE NEMOURS AND COMPANY, priority 2013, dated 2017)
